Measured values published in US12064445B2, “Cytarabine conjugates for cancer therapy” (Biosight Ltd., priority 2015, dated 2024).
Where two headings read alike, the source gives them in different places.

Assays:
[1] = system: Molt-4 (Human acute lymphoblastic leukemia); details: Ogbomo et al., Neoplasia 2008, read-out: Cytarabine in literature (IC50); cited from earlier work
[2] = system: CCRF-CEM (Human acute lymphoblastic leukemia T lympoblastoid line); details: Manfredini et al., Bioorg. Med. Chem. 2000, read-out: Cytarabine in literature (IC50); cited from earlier work
RPMI8226 (Human myeloma) = experiment: MTT assay, IC50 in tumor cell lines; format: cell-based; details: RPMI-8226, RPMI8226, 72 hr
Procedure: The effect of Astarabine® on different cell lines was evaluated. Briefly, various cell lines were obtained from ATCC or ECACC. Hematological cells were grown in RPMI medium containing 10-20% FBS and 1% glutamine. Solid tumor cells were grown in DMEM medium containing 10-20% FBS and 1% glutamine. Cells were seeded into 96-well plates, 50,000 cells/ml, 0.2 ml per well. […] The study was conducted in triplicates, PBS was used as control. Plates were incubated for 72 hr at 37° C., 5% CO2. At the end of the exposure period, a MTT assay using the MTT reagent [3-(4,5-dimethylthiazol-2-yl)-2,5-diphenyltetrazolium bromide] was performed. MTT was added to each well at a concentration of 5 mg/ml in a volume of 0.02 ml. Plates were incubated at 37° C. for 3 h. The plates were centrifuged at 3500 rpm for 5 minutes and the supernatant was aspired. The pellets which contained MTT crystals were each dissolved in 0.2 ml DMSO. Absorbance was determined using ELISA reader at a wavelength of 570 nm.

[3] = system: HepG2 (Human hepatocellular carcinoma); details: Grove et al., Cancer Res. 1995, read-out: Cytarabine in literature (IC50); cited from earlier work
[4] = system: CCRF-SB (Human acute lymphoblastic leukemia); details: Manfredini et al., Bioorg. Med. Chem. 2000, read-out: Cytarabine in literature (IC50); cited from earlier work
[5] = system: CCRF-CEM (Human acute lymphoblastic leukemia T lympoblastoid line); experiment: MTT assay, IC50 in tumor cell lines; format: cell-based; details: 72 hr
Procedure: (§1) The effect of Astarabine® on different cell lines was evaluated. Briefly, various cell lines were obtained from ATCC or ECACC. Hematological cells were grown in RPMI medium containing 10-20% FBS and 1% glutamine. Solid tumor cells were grown in DMEM medium containing 10-20% FBS and 1% glutamine. Cells were seeded into 96-well plates, 50,000 cells/ml, 0.2 ml per well. Test substances were diluted in saline or PBS and added in final concentrations of 0.1 nM to 10 μM, in a volume of 20 μl. The study was conducted in triplicates, PBS was used as control. Plates were incubated for 72 hr at 37° C., 5% CO2. At the end of the exposure period, a MTT assay using the MTT reagent [3-(4,5-dimethylthiazol-2-yl)-2,5-diphenyltetrazolium bromide] was performed. MTT was added to each well at a concentration of 5 mg/ml in a volume of 0.02 ml. Plates were incubated at 37° C. for 3 h. The plates were centrifuged at 3500 rpm for 5 minutes and the supernatant was aspired. The pellets which contained MTT crystals were each dissolved in 0.2 ml DMSO. Absorbance was determined using ELISA reader at a wavelength of 570 nm.

[6] = system: RS 4:11 (Human acute lymphoblastic leukemia); experiment: MTT assay, IC50 in tumor cell lines; format: cell-based; details: RS4-11, RS 4:11, 72 hr
Procedure: as §1

[7] = system: A2780 (Human ovarian carcinoma); experiment: MTT assay, IC50 in tumor cell lines; format: cell-based; details: A2780, 72 hr
Procedure: as §1

[8] = system: SU DHL-1 (Human large cell lymphoma); experiment: MTT assay, IC50 in tumor cell lines; format: cell-based; details: SU DHL-1, 72 hr
Procedure: as §1

[9] = system: MEG 01 (Human chronic myelogenous leukemia); experiment: MTT assay, IC50 in tumor cell lines; format: cell-based; details: MEG 01, 72 hr
Procedure: as §1

[10] = system: CCRF-SB (Human acute lymphoblastic leukemia); experiment: MTT assay, IC50 in tumor cell lines; format: cell-based; details: 72 hr
Procedure: as §1

[11] = system: NCIH727 (Human lung non small cell carcinoma); experiment: MTT assay, IC50 in tumor cell lines; format: cell-based; details: NCI-H727, NCIH727, 72 hr
Procedure: as §1

[12] = system: Molt-4 (Human acute lymphoblastic leukemia); experiment: MTT assay, IC50 in tumor cell lines; format: cell-based; details: Molt-4, 72 hr
Procedure: as §1

[13] = system: THP-1 (Human monocytic leukemia); experiment: MTT assay, IC50 in tumor cell lines; format: cell-based; details: THP-1, 72 hr
Procedure: as §1

[14] = system: P388.D1 (Mouse lymphoid macrophage); experiment: MTT assay, IC50 in tumor cell lines; format: cell-based; details: P388D1, P388.D1, 72 hr
Procedure: as §1

[15] = system: SU DHL-5 (Human B-cell non Hodgkin's lymphoma); experiment: MTT assay, IC50 in tumor cell lines; format: cell-based; details: SU DHL-5, 72 hr
Procedure: as §1

[16] = system: K562 (Human chronic myelogenous leukemia); experiment: MTT assay, IC50 in tumor cell lines; format: cell-based; details: K562, 72 hr
Procedure: as §1

[17] = system: HepG2 (Human hepatocellular carcinoma); experiment: MTT assay, IC50 in tumor cell lines; format: cell-based; details: HepG2, 72 hr
Procedure: as §1

[18] = system: L1210 (Mouse DBA/2 lymphocytic leukemia); experiment: MTT assay, IC50 in tumor cell lines; format: cell-based; details: L1210, 72 hr
Procedure: as §1

[19] = system: HL-60 (Human promyelocytic leukemia); experiment: MTT assay, IC50 in tumor cell lines; format: cell-based; details: HL-60, 72 hr
Procedure: as §1

[20] = system: HL-60 (Human promyelocytic leukemia); details: Qin et al., Clin. Cancer Res. 2007, read-out: Cytarabine in literature (IC50); cited from earlier work
[21] = system: A2780 (Human ovarian carcinoma); details: Ruiz Van Haperen, Cancer Res. 1994, read-out: Cytarabine in literature (IC50); cited from earlier work
[22] = system: L1210 (Mouse DBA/2 lymphocytic leukemia); details: Breistol et al., Cancer Res. 1999, read-out: Cytarabine in literature (IC50); cited from earlier work
CCRF-CEM cells = experiment: Human leukemia hollow fiber model transplanted in nude mice (CCRF-CEM); format: in vivo; details: 1.5 mg/mouse/day, 7 consecutive days
Procedure: (§2) Next, the efficacy of Astarabine® in vivo was studied on a human leukemia (Molt-4 and CCRF-CEM cells) hollow fiber model transplanted in nude mice. Astarabine® was injected at doses of 6.25 mg/mouse/day and 25 mg/mouse/day intraperitoneally (IP), daily, for 7 consecutive days; cytarabine was injected at a dose of 1.5 mg/mouse/day. Leukemia cell growth was measured using the MTT assay as described in Example 1 herein above.

Molt-4 cells = experiment: Human leukemia hollow fiber model transplanted in nude mice (Molt-4); format: in vivo; details: 1.5 mg/mouse/day, 7 consecutive days
Procedure: as §2

IC50 (RPMI8226 (Human myeloma)): 9700 to 63000 nM
IC50 [5]: 3.1 to 25.2 nM
IC50 [6]: 26.4 nM
IC50 [7]: 72 to 114 nM
IC50 [8]: 124 to 524 nM
IC50 [9]: 1200 to 5600 nM
IC50 [10]: 1900 to 3100 nM
IC50 [11]: 590 to 770 nM
IC50 [12]: 1.1 to 12.3 nM
IC50 [13]: 2300 to 5500 nM
IC50 [14]: 600 to 900 nM
IC50 [15]: 323 nM
IC50 [16]: 46.1 to 381 nM
IC50 [17]: 980 to 1160 nM
IC50 [18]: 12.2 to 16.4 nM
IC50 [19]: 49.6 to 165 nM
SMILES: Nc1ccn([C@@H]2O[C@H](CO)[C@@H](O)[C@@H]2O)c(=O)n1 [cytarabine, cytosine arabinoside]
IC50 [1]: 29 ± 1.8 nM
IC50 [2]: 30 nM
IC50 [3]: 185 ± 240 nM
IC50 [4]: 4200 nM
IC50 [20]: 37 ± 6.1 nM
IC50 [21]: 14 ± 4 nM
IC50 [22]: 40 ± 9 nM
Inhibition of growth of CCRF-CEM cells (CCRF-CEM cells): 73.3%
Inhibition of growth of Molt-4 cells (Molt-4 cells): 81.1%
